Legend:
ppGalNAc-T3 = target: T1, ppGalNAc-T3 (Homo sapiens, UniProt Q14435); test: intrinsic tryptophan fluorescence quenching; also UDP-Glo inhibition of purified enzyme (IC50 […]); format: binding
T1 construct: gene GALNT3; purified lumenal domain (containing catalytic and lectin domains)
T1 sequence (Q14435 38-633 limits assumed): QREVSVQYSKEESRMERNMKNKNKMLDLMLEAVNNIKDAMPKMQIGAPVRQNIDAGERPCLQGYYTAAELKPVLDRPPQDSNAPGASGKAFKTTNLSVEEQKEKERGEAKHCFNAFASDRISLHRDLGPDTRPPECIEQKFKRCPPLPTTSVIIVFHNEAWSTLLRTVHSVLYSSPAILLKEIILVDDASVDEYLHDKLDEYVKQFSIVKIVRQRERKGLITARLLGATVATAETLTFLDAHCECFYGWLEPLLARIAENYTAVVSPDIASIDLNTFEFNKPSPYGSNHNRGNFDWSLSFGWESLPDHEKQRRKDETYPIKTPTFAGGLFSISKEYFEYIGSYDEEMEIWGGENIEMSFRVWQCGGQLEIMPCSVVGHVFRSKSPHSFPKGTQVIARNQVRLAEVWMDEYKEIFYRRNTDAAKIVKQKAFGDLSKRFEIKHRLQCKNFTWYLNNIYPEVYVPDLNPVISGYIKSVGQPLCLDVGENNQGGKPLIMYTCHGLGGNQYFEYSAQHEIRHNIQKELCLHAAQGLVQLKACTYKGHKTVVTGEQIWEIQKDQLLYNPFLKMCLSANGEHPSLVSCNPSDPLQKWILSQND

[1] = anti-FLAG immunoblot of cell lysates, with or without chloroquine; details: glycan lost; control: untreated

## O=C(Nc1ccc(Nc2ccncc2)cc1)c1ccc(Nc2ccnc3ccc([N+](=O)[O-])cc23)cc1 [compound 1614, T3Inh-1]
ppGalNAc-T3
  Kd: ~17 µM

B1: FGF23: T3Inh-1 (protein)
parent chain: MLGARLRLWVCALCSVCSMSVLRAYPNASPLLGSSWGGLIHLYTATARNSYHLQIHKNGHVDGAPHQTIYSALMIRSEDAGFVVITGVMSRRYLCMDFRGNIFGSHYFDPENCRFQHQTLENGYDVYHSPQYHFLVSLGRAKRAFLPGMNPPPYSQFLSRRNEIPLIHFNTPIPRRHTRSAEDDSERDPLNVLKPRARMTPAPASCSQELPSAEDNSPMASDPLGVVRGGRVNTHAGGTGPEGCRPFAKFI
[1]
  expression_or_secretion: no change
